Source: patent US20240400564A1 (Syndax Pharmaceuticals, Inc, priority 2021, published 2024)

Target: hERG (Homo sapiens, UniProt Q12809)
Experiment: Patch clamp assay (hERG tail currents, whole-cell)

Sequence of hERG (Q12809 whole entry): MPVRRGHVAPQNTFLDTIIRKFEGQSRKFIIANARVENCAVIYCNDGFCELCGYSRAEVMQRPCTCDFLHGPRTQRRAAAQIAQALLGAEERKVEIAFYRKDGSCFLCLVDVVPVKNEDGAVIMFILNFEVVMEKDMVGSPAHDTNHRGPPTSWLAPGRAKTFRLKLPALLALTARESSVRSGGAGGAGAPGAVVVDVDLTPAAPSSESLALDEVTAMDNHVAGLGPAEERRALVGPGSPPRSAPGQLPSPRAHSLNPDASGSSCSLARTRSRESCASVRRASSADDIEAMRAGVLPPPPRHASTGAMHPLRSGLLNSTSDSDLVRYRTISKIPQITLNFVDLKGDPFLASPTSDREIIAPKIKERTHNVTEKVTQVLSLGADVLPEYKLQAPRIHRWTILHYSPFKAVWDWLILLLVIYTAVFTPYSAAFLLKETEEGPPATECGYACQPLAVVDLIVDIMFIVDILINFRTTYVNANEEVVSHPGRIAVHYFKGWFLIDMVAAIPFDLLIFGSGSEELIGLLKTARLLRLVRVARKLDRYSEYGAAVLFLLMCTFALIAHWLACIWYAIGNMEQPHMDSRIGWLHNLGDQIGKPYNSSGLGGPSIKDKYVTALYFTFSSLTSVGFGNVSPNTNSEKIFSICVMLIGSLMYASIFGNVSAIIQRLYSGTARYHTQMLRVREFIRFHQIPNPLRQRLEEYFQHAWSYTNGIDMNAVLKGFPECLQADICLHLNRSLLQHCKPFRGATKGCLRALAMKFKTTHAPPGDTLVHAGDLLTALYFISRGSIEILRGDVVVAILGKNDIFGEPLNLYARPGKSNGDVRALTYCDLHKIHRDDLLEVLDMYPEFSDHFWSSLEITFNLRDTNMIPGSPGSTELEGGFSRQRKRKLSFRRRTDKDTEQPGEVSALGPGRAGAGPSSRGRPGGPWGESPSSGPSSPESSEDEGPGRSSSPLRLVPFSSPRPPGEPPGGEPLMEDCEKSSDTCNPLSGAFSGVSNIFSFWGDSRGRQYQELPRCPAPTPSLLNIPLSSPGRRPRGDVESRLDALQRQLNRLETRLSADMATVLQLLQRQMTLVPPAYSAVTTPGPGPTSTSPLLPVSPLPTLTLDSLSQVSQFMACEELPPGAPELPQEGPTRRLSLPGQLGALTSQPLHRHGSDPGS

Row | SMILES | hERG % Remaining (30 μM compound) | hERG % Remaining (10 μM compound) | further results
1 | CCNS(=O)(=O)N[C@H]1CC[C@H](CN2CCC3(CC2)CN(c2ncnnc2Oc2ccc(F)cc2C(=O)N(CC(F)(F)F)C(C)C)C3)OC1 (stereo in doubt) [Example 193, 2-((5-(7-(((2R,5S)-5-((N-Ethylsulfamoyl)amino)tetrahydro-2H-pyran-2-yl)methyl)-2,7-diazaspiro[3.5]nonan-2-yl)-1,2,4-triazin-6-yl)oxy)-5-fluoro-N-isopropyl-N-(2,2,2-trifluoroethyl)benzamide] | +++ (≥66%) |  | 
2 | CCN(C(=O)c1cc(F)ccc1Oc1cncnc1N1CC2(CCN(C[C@@H]3CC[C@@H](NC(=O)OC(C)(C)C)CO3)CC2)C1)C(C)C [Example 11, tert-Butyl ((3R,6S)-6-((2-(5-(2-(ethyl(isopropyl)carbamoyl)-4-fluorophenoxy)pyrimidin-4-yl)-2,7-diazaspiro[3.5]nonan-7-yl)methyl)tetrahydro-2H-pyran-3-yl)carbamate] | + (<33%) | + (<33%) | 
3 | CCN(C(=O)c1cc(F)ccc1Oc1cncnc1N1CC2(CCN(C[C@@H]3CC[C@@H](NC(=O)NCC(F)(F)F)CO3)CC2)C1)C(C)C [Example 37, N-Ethyl-5-fluoro-N-isopropyl-2-((4-(7-(((2S,5R)-5-(3-(2,2,2-trifluoroethyl)ureido)tetrahydro-2H-pyran-2-yl)methyl)-2,7-diazaspiro[3.5]nonan-2-yl)pyrimidin-5-yl)oxy)benzamide] | + (<33%) | + (<33%) | 
4 | CCN(C(=O)c1cc(F)ccc1Oc1cncnc1N1CC2(CCN(C[C@@H]3CC[C@@H](NS(=O)(=O)c4ccccn4)CO3)CC2)C1)C(C)C [Example 58, N-ethyl-5-fluoro-N-isopropyl-2-((4-(7-(((2S,5R)-5-(pyridine-2-sulfonamido)tetrahydro-2H-pyran-2-yl)methyl)-2,7-diazaspiro[3.5]nonan-2-yl)pyrimidin-5-yl)oxy)benzamide] | ++ (233% and ≤66%) | +++ (≥66%) | 
5 | CCN(C(=O)c1cc(F)ccc1Oc1cncnc1N1CC2(CCN(C[C@@H]3CC[C@@H](NS(=O)(=O)c4ccccc4Cl)CO3)CC2)C1)C(C)C [Example 59, 2-((4-(7-(((2S,5R)-5-((2-Chlorophenyl)sulfonamido)tetrahydro-2H-pyran-2-yl)methyl)-2,7-diazaspiro[3.5]nonan-2-yl)pyrimidin-5-yl)oxy)-N-ethyl-5-fluoro-N-isopropylbenzamide] | + (<33%) | + (<33%) | 
6 | CCN(C(=O)c1cc(F)ccc1Oc1cncnc1N1CC2(CCN(C[C@@H]3CC[C@@H](NS(=O)(=O)c4ccc(OC)cc4)CO3)CC2)C1)C(C)C [Example 62, N-Ethyl-5-fluoro-N-isopropyl-2-((4-(7-(((2S,5R)-5-((4-methoxyphenyl)sulfonamido)tetrahydro-2H-pyran-2-yl)methyl)-2,7-diazaspiro[3.5]nonan-2-yl)pyrimidin-5-yl)oxy)benzamide] | + (<33%) | + (<33%) | 
7 | CCN(C(=O)c1cc(F)ccc1Oc1cncnc1N1CC2(CCN(C[C@@H]3CC[C@@H](NS(=O)(=O)c4cccnc4)CO3)CC2)C1)C(C)C [Example 63, N-Ethyl-5-fluoro-N-isopropyl-2-((4-(7-(((2S,5R)-5-(pyridine-3-sulfonamido)tetrahydro-2H-pyran-2-yl)methyl)-2,7-diazaspiro[3.5]nonan-2-yl)pyrimidin-5-yl)oxy)benzamide] | ++ (233% and ≤66%) | +++ (≥66%) | 
8 | CCN(C(=O)c1cc(F)ccc1Oc1cncnc1N1CC2(CCN(C[C@@H]3CC[C@@H](NS(=O)(=O)N4CCOCC4)CO3)CC2)C1)C(C)C [Example 64, N-Ethyl-5-fluoro-N-isopropyl-2-((4-(7-(((2S,5R)-5-(morpholine-4-sulfonamido)tetrahydro-2H-pyran-2-yl)methyl)-2,7-diazaspiro[3.5]nonan-2-yl)pyrimidin-5-yl)oxy)benzamide] | ++ (233% and ≤66%) | +++ (≥66%) | 
9 | CCN(C(=O)c1cc(F)ccc1Oc1cncnc1N1CC2(CCN(C[C@@H]3CC[C@@H](NS(=O)(=O)c4ccccc4OC)CO3)CC2)C1)C(C)C [Example 65, N-Ethyl-5-fluoro-N-isopropyl-2-((4-(7-(((2S,5R)-5-((2-methoxyphenyl)sulfonamido)tetrahydro-2H-pyran-2-yl)methyl)-2,7-diazaspiro[3.5]nonan-2-yl)pyrimidin-5-yl)oxy)benzamide] | + (<33%) | ++ (233% and ≤66%) | 
10 | CCN(C(=O)c1cc(F)ccc1Oc1cncnc1N1CC2(CCN(C[C@@H]3CC[C@@H](NS(=O)(=O)c4cccc(OC)c4)CO3)CC2)C1)C(C)C [Example 66, N-Ethyl-5-fluoro-N-isopropyl-2-((4-(7-(((2S,5R)-5-((3-methoxyphenyl)sulfonamido)tetrahydro-2H-pyran-2-yl)methyl)-2,7-diazaspiro[3.5]nonan-2-yl)pyrimidin-5-yl)oxy)benzamide] | + (<33%) | + (<33%) | 
11 | CCN(C(=O)c1cc(F)ccc1Oc1cncnc1N1CC2(CCN(C[C@@H]3CC[C@@H](NS(=O)(=O)N4CCC4)CO3)CC2)C1)C(C)C [Example 69, 2-((4-(7-(((2S,5R)-5-(Azetidine-1-sulfonamido)tetrahydro-2H-pyran-2-yl)methyl)-2,7-diazaspiro[3.5]nonan-2-yl)pyrimidin-5-yl)oxy)-N-ethyl-5-fluoro-N-isopropylbenzamide] | ++ (233% and ≤66%) | +++ (≥66%) | 
12 | CCN(C(=O)c1cc(F)ccc1Oc1cncnc1N1CC2(CCN(C[C@@H]3CC[C@@H](NS(=O)(=O)NC)CO3)CC2)C1)C(C)C [Example 76, N-Ethyl-5-fluoro-N-isopropyl-2-((4-(7-(((2S,5R)-5-((N-methylsulfamoyl)amino)tetrahydro-2H-pyran-2-yl)methyl)-2,7-diazaspiro[3.5]nonan-2-yl)pyrimidin-5-yl)oxy)benzamide] | +++ (≥66%) | +++ (≥66%) | 
13 | CC(C)N(C(=O)c1cc(F)ccc1Oc1cncnc1N1CC2(CCN(C[C@@H]3CC[C@@H](NS(=O)(=O)N4CCOCC4)CO3)CC2)C1)C(C)C [Example 78, 5-Fluoro-N,N-diisopropyl-2-((4-(7-(((2S,5R)-5-(morpholine-4-sulfonamido)tetrahydro-2H-pyran-2-yl)methyl)-2,7-diazaspiro[3.5]nonan-2-yl)pyrimidin-5-yl)oxy)benzamide] | +++ (≥66%) | +++ (≥66%) | 
14 | CC(C)N(C(=O)c1cc(F)ccc1Oc1cncnc1N1CC2(CCN(C[C@@H]3CC[C@@H](NS(=O)(=O)N4CCC4)CO3)CC2)C1)C(C)C [Example 88, 2-((4-(7-(((2S,5R)-5-(Azetidine-1-sulfonamido)tetrahydro-2H-pyran-2-yl)methyl)-2,7-diazaspiro[3.5]nonan-2-yl)pyrimidin-5-yl)oxy)-5-fluoro-N,N-diisopropylbenzamide] | +++ (≥66%) |  | 
15 | CC(C)N(C(=O)c1cc(F)ccc1Oc1cncnc1N1CC2(CCN(C[C@@H]3CC[C@@H](NS(=O)(=O)N(C)C(C)C)CO3)CC2)C1)C(C)C [Example 89, 5-Fluoro-N,N-diisopropyl-2-((4-(7-(((2S,5R)-5-((N-isopropyl-N-methylsulfamoyl)amino)tetrahydro-2H-pyran-2-yl)methyl)-2,7-diazaspiro[3.5]nonan-2-yl)pyrimidin-5-yl)oxy)benzamide] | ++ (233% and ≤66%) |  | 
16 | CC(C)N(C(=O)c1cc(F)ccc1Oc1cncnc1N1CC2(CCN(C[C@@H]3CC[C@@H](NS(N)(=O)=O)CO3)CC2)C1)C(C)C [Example 90, 5-Fluoro-N,N-diisopropyl-2-((4-(7-(((2S,5R)-5-(sulfamoylamino)tetrahydro-2H-pyran-2-yl)methyl)-2,7-diazaspiro[3.5]nonan-2-yl)pyrimidin-5-yl)oxy)benzamide] | +++ (≥66%) | +++ (≥66%) | 
17 | CC(C)N(C(=O)c1cc(F)ccc1Oc1cncnc1N1CC2(CCN(C[C@@H]3CC[C@@H](NS(=O)(=O)N(C)C)CO3)CC2)C1)C1CC1 [Example 93, N-Cyclopropyl-2-((4-(7-(((2S,5R)-5-((N,N-dimethylsulfamoyl)amino)tetrahydro-2H-pyran-2-yl)methyl)-2,7-diazaspiro[3.5]nonan-2-yl)pyrimidin-5-yl)oxy)-5-fluoro-N-isopropylbenzamide] | ++ (233% and ≤66%) | +++ (≥66%) | hERG % Remaining (1 μM compound): +++ (≥66%); hERG % Remaining (3 μM compound): +++ (≥66%); hERG % Remaining (100 μM compound): + (<33%)
18 | CC(C)N(CC(F)F)C(=O)c1cc(F)ccc1Oc1cncnc1N1CC2(CCN(C[C@@H]3CC[C@@H](NS(=O)(=O)N4CCOCC4)CO3)CC2)C1 [Example 94, N-(2,2-Difluoroethyl)-5-fluoro-N-isopropyl-2-((4-(7-(((2S,5R)-5-(morpholine-4-sulfonamido)tetrahydro-2H-pyran-2-yl)methyl)-2,7-diazaspiro[3.5]nonan-2-yl)pyrimidin-5-yl)oxy)benzamide] | ++ (233% and ≤66%) | +++ (≥66%) | 
19 | CC(C)N(CC(F)F)C(=O)c1cc(F)ccc1Oc1cncnc1N1CC2(CCN(C[C@@H]3CC[C@@H](NS(=O)(=O)N(C)C)CO3)CC2)C1 [Example 95, N-(2,2-Difluoroethyl)-2-((4-(7-(((2S,5R)-5-((N,N-dimethylsulfamoyl)amino)tetrahydro-2H-pyran-2-yl)methyl)-2,7-diazaspiro[3.5]nonan-2-yl)pyrimidin-5-yl)oxy)-5-fluoro-N-isopropylbenzamide] | ++ (233% and ≤66%) | +++ (≥66%) | hERG IC50 (μM) (hERG stably transfected HEK 293 cells): + (<25 PM)
20 | CCN(CC)S(=O)(=O)N[C@@H]1CC[C@@H](CN2CCC3(CC2)CN(c2ncncc2Oc2ccc(F)cc2C(=O)N(CC(F)F)C(C)C)C3)OC1 [Example 97, 2-((4-(7-(((2S,5R)-5-((N,N-Diethylsulfamoyl)amino)tetrahydro-2H-pyran-2-yl)methyl)-2,7-diazaspiro[3.5]nonan-2-yl)pyrimidin-5-yl)oxy)-N-(2,2-difluoroethyl)-5-fluoro-N-isopropylbenzamide] | + (<33%) | ++ (233% and ≤66%) | 
